From ChEMBL document CHEMBL3507680, “University of Dundee, Gates Library screen for HepG2 cell viability”

Test: Human HepG2 cell viability assay in 384 well format
Format: toxicity, cell-based
Design: dose 125 nL, time 70.5 hour; concentration not given beside the values
Details: HepG2 cells, read-out: Inhibition

| Structure (SMILES) | cytotoxicity at 70.5 h |
| --- | --- |
| Cc1cccc(SC2CCN(Cc3nc(CC4CC4)no3)CC2)c1 | 0.0623% |
| COc1ccc(-n2nc(C(C)C)nc2COC(C)C)cc1 | 20.2% |
| CCn1c(C)nnc1SCCn1cc(-c2ncc[nH]2)nn1 | -5.72% |
| O=C(O)c1ccnc(-c2ccnc(N3CCC4(CCO4)CC3)n2)c1 | -11.6% |
| Cc1cccc(N2CCC(N3CCCC4(CNC(=O)O4)C3)CC2)c1C (stereo not given) | -7.33% |
| CCCn1ccnc1CN1CCCC(CC)(CO)C1 (stereo not given) | 26.9% |
| COCCC1(CO)CCCN(C(=O)CCC(F)(F)F)C1 (stereo not given) | -10.8% |
| c1ccc(NCCn2cc(C3CCCNC3)nn2)cc1 (stereo not given) | -3.12% |
| N#CC1(C(=O)N2C[C@H](Nc3ccnc(N)n3)[C@@H](C3CC3)C2)CCOCC1 | -3.81% |
| CC(C)C1CN(C(=O)c2csc(CN(C)C)n2)CCC(=O)N1CC1CC1 (stereo not given) | -10.8% |
| Cc1nc(C(C)C)sc1C(=O)N(C)CCCc1cnn(C)c1 | -7.28% |
| Cc1ncc2c(c1CNC(=O)C1(C)CCCO1)CCNC2 (stereo not given) | -7.21% |
| CCCc1nc(N2CCCN3CCC[C@H]3C2)c2cnn(C)c2n1 | 15.2% |
| COC(=O)CCNC(=O)c1coc(COc2ccc(F)cc2)n1 | -5.99% |
| NC1(C(=O)NCC2CCCN(Cc3ccccc3F)C2)CCCC1 (stereo not given) | -1.04% |
| CCn1nc(C)c(C(=O)N2C[C@@H](CN(C)C)[C@@H](CO)C2)c1C | 0.473% |
| CC1(Cc2ccc3c(c2)OCO3)CCCN(S(=O)(=O)N2CCOCC2)C1 (stereo not given) | -6.32% |
| O=S(=O)(NCc1ccccc1)NCc1nc(-c2ccncc2)n[nH]1 | -5.68% |
| COCc1cc(CNC(=O)c2cc(NC(C)=O)ccc2Cl)n[nH]1 | -6.43% |
| COC(=O)CCC(=O)N(C/C=C/c1ccccc1)CCO | 23.1% |
| Cc1nc(N2CCCC(OCc3ccccn3)C2)c2c(C)noc2n1 (stereo not given) | -9.19% |
| FC(F)Oc1ccccc1CN1CCCC(c2nccn2CC2CC2)C1 (stereo not given) | -1.02% |
| CCNc1ccnc(NC2CCN(CC(N)=O)CC2)n1 | 14% |
| COc1coc(CN2CCCC3(CCC(=O)N(CC4CC4)C3)C2)cc1=O (stereo not given) | -8.43% |
| Cc1nsc(NC(=O)NC2(CN3CCOCC3)CCCCC2)n1 | 1.42% |
| OC1CCN(CCCn2ccnc2-c2c[nH]cn2)CC1 | -5.95% |
| CC(C)(O)CCc1ccc(C(=O)N2CCN(CC(F)(F)F)CC2)cc1 | 3.68% |
| Cc1nc(-c2cccc(N3CCC(N4CCCC(C#N)C4)CC3)c2)cs1 (stereo not given) | 22.1% |

| Structure (SMILES) | cytotoxicity at 70.5 h |
| --- | --- |
| Cc1cnc(C)c(N2CC[C@H](N3CCOCC3)[C@H](CCCO)C2)n1 | -9.88% |
| Cc1cccnc1N1CCN(C(=O)C(C)n2ccnc2C(C)C)CC1 (stereo not given) | -2.78% |
| O=C1NCC2(CCCN(C(=O)CCn3cnc4ccccc43)CC2)O1 (stereo not given) | -1.01% |
| Cc1ncccc1OC1(C(=O)NCCc2ccccn2)CCNCC1 | 13.7% |
| N[C@H]1CN(CCOc2ccc(F)cc2)C[C@@H]1C1CC1 | 14.7% |
| Cc1ccccc1-c1noc(-c2ccc(N(C)C3CCOCC3)nc2)n1 | -2.11% |
| CCc1nccn1CCC(=O)N1CCOC(c2ccc(F)cc2)C1 (stereo not given) | -6.46% |
| CCCn1cc(C(=O)NCC(=O)NC2CC2)c(C)n1 | -0.483% |
| Cc1ccc(-n2cc(CN3CCN(C)[C@@H]4CS(=O)(=O)C[C@@H]43)cn2)cc1 | -5.8% |
| Cc1nc(C2CCN(C)CC2)cc(N2CCOc3ccc(Cl)cc3C2)n1 | 32.5% |
| CN(Cc1ccc(C2CC(=O)Nc3cc4[nH]ncc4cc32)o1)S(C)(=O)=O (stereo not given) | -0.109% |
| CC(C)CN1CCCC1c1ccc(C(=O)Nc2cc[nH]n2)s1 (stereo not given) | -0.844% |
| CCCc1cnc(C)nc1N1CCC(Cn2cc(CN(C)C)nn2)CC1 | -6.13% |
| Cc1nc(CCNC(=O)C2CCN(C(C)C)CC2)sc1Cl | -0.288% |
| Cc1cc(CN2CCC(C(=O)O)(n3ccc(-c4ccco4)n3)CC2)on1 | -2.92% |
| Cc1cc(C)n(CC(C)NC(=O)c2cc(CN3CCC(O)CC3)on2)n1 (stereo not given) | -9.49% |
| COc1cccc(CCC2CCCN(C(C)=O)C2)c1 (stereo not given) | -1.99% |
| COc1ccccc1CNC(=O)CN(C)C(C)c1ccncn1 (stereo not given) | -18.5% |
| Cc1ccc(CN2CCC(Cc3nnc(CO)n3C)CC2)cc1C | 3.69% |
| O=c1c2cccc(F)c2ncn1CCN1CCOCC1 | -3.65% |
| CN1CC2(CCN(C(=O)Cc3ccc(O)c(F)c3)CC2)CC1=O | 10.1% |
| O=C(NCc1ccoc1)c1ccc(C2CCCN2CC2CCOCC2)s1 (stereo not given) | 38.9% |
| Cc1nc(C(C)NC(=O)c2cn(C/C=C/c3ccccc3)nn2)n[nH]1 (stereo not given) | -13.1% |
| COCc1ccc(C(=O)N2CCN(CC3CC3)[C@@H]3CS(=O)(=O)C[C@@H]32)o1 | -1.28% |
| CN(C)S(=O)(=O)NCc1cccnc1Oc1ccccc1F | 1.78% |
| Cc1ccc(C(=O)N2C[C@@H](NS(C)(=O)=O)[C@H](C(C)C)C2)cc1O | 1.71% |
| COCCN(CC(N)=O)CC1CCCN(C2Cc3ccccc3C2)C1 (stereo not given) | 7.41% |
